Measured values reported in article PMC3905653, “Characterization of two transketolases encoded on the chromosome and the plasmid pBM19 of the facultative ribulose monophosphate cycle methylotroph Bacillus methanolicus” (BMC Microbiology, 2014).

What was measured:
TKT^C = target: T1, TKT^C (Bacillus methanolicus, UniProt I3DZN5); assay: inhibition in coupled assay I; assay type: biochemical; details: effector tested at 1 and 5 mM, which one gave the value is not told; R5-P and X5-P, pH 7.5, Mn2+
T1 construct: gene tktC; full length, chromosomal gene; pET16b N-terminal His10 tag cut by factor Xa; E. coli BL21(DE3); 73 kDa, homotetramer 280 kDa; primers tktC encode start TTG-TTT-GAT-AAA-ATT-GAC-CAT (MFDKIDH) and C-terminal ALLKQ

TKT^P = target: T2, TKT^P (Bacillus methanolicus, UniProt Q6TV44); assay: inhibition in coupled assay I; assay type: biochemical; details: effector tested at 1 and 5 mM, which one gave the value is not told; R5-P and X5-P, pH 7.5, Mn2+
T2 construct: gene tktP; full length, plasmid pBM19 gene; pET16b N-terminal His10 tag cut by factor Xa; E. coli BL21(DE3); 73 kDa, homotetramer 280 kDa
T2 sequence (Q6TV44 entry or part of it): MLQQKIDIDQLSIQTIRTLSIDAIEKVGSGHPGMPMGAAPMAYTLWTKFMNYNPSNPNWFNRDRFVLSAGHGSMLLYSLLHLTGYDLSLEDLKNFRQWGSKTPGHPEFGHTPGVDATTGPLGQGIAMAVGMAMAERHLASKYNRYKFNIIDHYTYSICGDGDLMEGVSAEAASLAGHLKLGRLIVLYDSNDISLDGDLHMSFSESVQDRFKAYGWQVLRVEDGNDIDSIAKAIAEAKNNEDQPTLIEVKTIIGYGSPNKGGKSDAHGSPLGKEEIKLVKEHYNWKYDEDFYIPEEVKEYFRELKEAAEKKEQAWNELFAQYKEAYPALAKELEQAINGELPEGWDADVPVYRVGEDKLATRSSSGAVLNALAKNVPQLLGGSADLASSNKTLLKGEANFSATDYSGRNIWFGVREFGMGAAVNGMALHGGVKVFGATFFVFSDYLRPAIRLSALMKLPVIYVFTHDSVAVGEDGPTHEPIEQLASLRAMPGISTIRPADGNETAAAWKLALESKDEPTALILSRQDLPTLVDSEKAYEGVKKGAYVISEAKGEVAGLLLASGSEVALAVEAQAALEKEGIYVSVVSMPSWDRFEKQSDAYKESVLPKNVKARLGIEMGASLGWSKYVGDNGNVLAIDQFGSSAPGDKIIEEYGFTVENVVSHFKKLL

T1 sequence (I3DZN5 entry or part of it): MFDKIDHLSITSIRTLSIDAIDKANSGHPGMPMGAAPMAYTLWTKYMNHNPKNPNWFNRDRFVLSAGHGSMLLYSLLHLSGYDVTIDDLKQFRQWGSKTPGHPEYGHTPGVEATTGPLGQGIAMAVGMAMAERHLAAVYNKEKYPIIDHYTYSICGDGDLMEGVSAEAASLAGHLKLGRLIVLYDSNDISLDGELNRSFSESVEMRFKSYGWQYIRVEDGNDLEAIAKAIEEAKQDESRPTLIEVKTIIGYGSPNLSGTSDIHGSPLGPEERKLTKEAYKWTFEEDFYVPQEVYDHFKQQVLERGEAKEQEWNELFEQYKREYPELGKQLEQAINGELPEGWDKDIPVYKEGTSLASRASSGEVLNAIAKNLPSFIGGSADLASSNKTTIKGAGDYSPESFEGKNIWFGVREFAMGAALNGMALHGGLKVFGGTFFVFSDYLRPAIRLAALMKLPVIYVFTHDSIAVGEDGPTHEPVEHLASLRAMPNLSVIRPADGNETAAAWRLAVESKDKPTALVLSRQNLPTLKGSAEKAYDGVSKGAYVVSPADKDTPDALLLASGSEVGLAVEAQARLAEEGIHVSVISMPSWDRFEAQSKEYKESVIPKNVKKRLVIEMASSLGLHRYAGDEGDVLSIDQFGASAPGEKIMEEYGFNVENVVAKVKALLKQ

SMILES | % inhibition (TKT^C) [%] | % inhibition (TKT^P) [%]
Nc1ncnc2c1ncn2[C@@H]1O[C@H](COP(=O)(O)OP(=O)(O)O)[C@@H](O)[C@H]1O [ADP] | 95 | 65
Nc1ncnc2c1ncn2[C@@H]1O[C@H](COP(=O)(O)OP(=O)(O)OP(=O)(O)O)[C@@H](O)[C@H]1O [ATP] | 75 | 65
